According to US20080069809A1, “Compositions and methods for the diagnosis and treatment of cancer” (priority 2006, published 2008):

Legend:
[1] = system: HL60; test: Apoptosis (sub-G1 DNA by FACS, caspase-3 activation) in HL60 leukemic cells; type: cell-based
Protocol: (§1) The myeloid leukemic cell lines HL60, NB60, NB4, U937, K562 and KG1a were all grown in RPMI 1640 medium (Life Technologies, Paisley, United Kingdom) supplemented with 10% v/v fetal calf serum (Sear Laboratories International Crawley, United Kingdom), 100 U/mL penicillin, and 100 μg/mL streptomycin (Sigma Aldrich, Poole, United Kingdom) at 37° C. and 5% v/v CO2. AML blasts were isolated from patient bone marrow aspirates and peripheral blood of eight patients at diagnosis or relapse. Patients were not receiving AML therapy at time of sampling. Blasts were isolated by Ficoll density centrifugation and were cultured in serum-free insulin transferrin selenium-positive (ITS+) medium (Life Technologies) containing 300 ng/mL stem cell factor (SCF) and 10 ng/mL interleukin 3 (IL3; R and D Systems, Abingdon, United Kingdom) and antibiotics. […] Normal myeloblasts were isolated from cord blood or adult mobilized peripheral blood. Briefly, CD34^+ cells were indirectly selected from the mononuclear cell preparations using antibody-coated magnetic beads (Miltenyi Biotec, United Kingdom).
To determine the effects of ingenol-3-angelate (PEP005), cells were incubated for up to 5 days with medium alone or PEP005 at a range of concentrations from 0.2 nM to 20 μM. PEP005 was extracted from Euphorbia peplus and supplied as a 98.5% pure preparation by Peplin Limited (Brisbane, Australia) as a dry pellet and was made up to a stock of […] in acetone on a weekly basis. Stocks were stored at 4° C. and diluted into medium when required. Final acetone concentration was never more than 0.1% v/v. Apoptosis and differentiation were assessed after 1 to 5 days.

[2] = system: NB4; test: Apoptosis (sub-G1 DNA by FACS) in NB4 leukemic cells; type: cell-based
Protocol: as §1
(§2) To determine the effects of ingenol-3-angelate (PEP005), cells were incubated for up to 5 days with medium alone or PEP005 at a range of concentrations from 0.2 nM to 20 μM. […] Apoptosis and differentiation were assessed after 1 to 5 days.

[3] = system: K562; conditions: less sensitive, treated 5 days
Protocol: as §1, §2

[4] = system: U937; conditions: sub-G1 DNA by FACS, treated 5 days
Protocol: as §1, §2

[5] = system: HL60; test: Differentiation (CD11b expression) in HL60 cells; type: cell-based
Protocol: (§3) The myeloid leukemic cell lines HL60, NB60, NB4, U937, K562 and KG1a were all grown in RPMI 1640 medium (Life Technologies, Paisley, United Kingdom) supplemented with 10% v/v fetal calf serum (Sear Laboratories International Crawley, United Kingdom), 100 U/mL penicillin, and 100 μg/mL streptomycin (Sigma Aldrich, Poole, United Kingdom) at 37° C. and 5% v/v CO2. AML blasts were isolated from patient bone marrow aspirates and peripheral blood of eight patients at diagnosis or relapse. Patients were not receiving AML therapy at time of sampling. […] Blast purity ranged from 80% to 95%, as assessed by expression of CD34. […]
(§4) Cell differentiation was determined by staining of cells with anti-CD11b antibody as a general early marker of myeloid differentiation. In studies with HL60 cells, PEP005-treated and 20 nM phorbol myristate (PMA)-treated (Sigma Aldrich) cells were also assessed for their ability to phagocytose complement-coated yeast, a marker of a fully differentiated myeloid cell, as previously described (Toksoz et al, Leukemia Res 6:491-498, 1982). […] Images were captured with a SPOT2 cameria (Diagnostic Instructions, Sterling Heights, Mich.) and analyzed using Image-Pro 4.0 software (Media Cybernetics, Silver Spring, Md.).

[6] = system: NB4; test: Differentiation (CD11b expression) in NB4 cells; type: cell-based; conditions: treated 5 days
Protocol: as §3, §4

[7] = system: K562; test: Differentiation (CD11b expression) in K562 cells; type: cell-based
Protocol: as §3, §4

[8] = system: KG1a; test: Differentiation (CD11b expression) in KG1a cells; type: cell-based
Protocol: (§5) The myeloid leukemic cell lines HL60, NB60, NB4, U937, K562 and KG1a were all grown in RPMI 1640 medium (Life Technologies, Paisley, United Kingdom) supplemented with 10% v/v fetal calf serum (Sear Laboratories International Crawley, United Kingdom), 100 U/mL penicillin, and 100 μg/mL streptomycin (Sigma Aldrich, Poole, United Kingdom) at 37° C. and 5% v/v CO2. AML blasts were isolated from patient bone marrow aspirates and peripheral blood of eight patients at diagnosis or relapse. Patients were not receiving AML therapy at time of sampling. Blasts were isolated by Ficoll density centrifugation and were cultured in serum-free insulin transferrin selenium-positive (ITS+) medium (Life Technologies) containing 300 ng/mL stem cell factor (SCF) and 10 ng/mL interleukin 3 (IL3; R and D Systems, Abingdon, United Kingdom) and antibiotics. Blast purity ranged from 80% to 95%, as assessed by expression of CD34. Normal myeloblasts were isolated from cord blood or adult mobilized peripheral blood. Briefly, CD34^+ cells were indirectly selected from the mononuclear cell preparations using antibody-coated magnetic beads (Miltenyi Biotec, United Kingdom).
as §4, with “1982). The ingestion of three or more yeasts was taken as a positive result. In normal cord blood or adult bone marrow myeloblasts, loss of CD34 was taken as a marker of differentiation. Isotype-matched controls were used and all antibodies were from DAKO (Cambridge, United Kingdom).” for “1982).”

[9] = system: primary AML blasts; test: Apoptosis in primary AML blasts from patient bone marrow; type: cell-based, human
Protocol: as §5, §2, §4

[10] = system: Normal CD34+ myeloblasts; test: Apoptosis / cytotoxicity in normal CD34+ myeloblasts; type: cell-based, human
Protocol: as §3, §2
Cell differentiation was determined by staining of cells with anti-CD11b antibody as a general early marker of myeloid differentiation. In studies with HL60 cells, PEP005-treated and 20 nM phorbol myristate (PMA)-treated (Sigma Aldrich) cells were also assessed for their ability to phagocytose complement-coated yeast, a marker of a fully differentiated myeloid cell, as previously described (Toksoz et al, Leukemia Res 6:491-498, 1982). […]

[11] = system: Normal CD34+ myeloblasts; test: Differentiation of normal CD34+ myeloblasts (loss of CD34, morphology); type: cell-based, human; conditions: doses of 20 nM to 2.0 μM PEP005
Protocol: as §3, §4

[12] = system: EGFP-positive KG1a cells transfected with control vector; test: Apoptosis in KG1a cells transfected with control vector pEGFP; type: cell-based; conditions: even at 20 μM PEP005, 3 days
Protocol: KG1a cells were transiently transfected with EGFP-tagged mouse PKC-δ subcloned into pEGFP-N1 plasmid (available from National Cancer Institute [NCI], Bethesda, Md.) using an Amaxa nucleofection apparatus (Amaxa, Koeln, Germany). Transfection efficiency was approximately 35% as judged by fluorescence-activated cell sorter (FACS) analysis and cells were treated with PEP005 (0.2 μM-20 μM) 24 hours after transfection. Cell viability in EGFP-positive cells was assessed by analysis of cell morphology (forward scatter and side scatter profile) by FACS and loss of viability confirmed in the total cell culture by MTT assay after 3 days. Briefly, 24 hours after transfection, 2×10^4 cells were plated in five wells in 96-well plates and exposed to […] PEP005. At 72 hours, 20 μL MTT substrate at 5 mg/mL was added and plates were incubated at 37° C. After 3 hours, 150 μL media was removed and replated with 200 μL dimethyl sulfoxide (DMSO). Absorbance at an optical density (OD) of 550 nm was read on a Biotech plate reader (Amersham Pharmacia) and corrected for absorbance obtained from blank media controls.

[13] = sub-G1 DNA by FACS, treated 5 days
[14] = within the first 1 to 2 days of treatment

SMILES: C/C=C(/C)C(=O)O[C@H]1C(C)=C[C@]23C(=O)[C@@H](C=C(CO)[C@@H](O)[C@]12O)[C@H]1[C@@H](C[C@H]3C)C1(C)C [PEP005, ingenol-3-angelate]
- apoptosis (caspase-3 activity) ([1]; after 3 days of treatment, PMA 20 nM): apoptosis was the dominant effect
- PEP005 concentration with optimal effect, apoptosis [1, 13]: 20 nM
- fraction of cells entering apoptosis (kinetic study) [1, 14]: up to half of the cells entering apoptosis
- PEP005 concentration with optimal effect, apoptosis [2, 13]: 20 nM
- fraction of cells entering apoptosis (kinetic study) [2, 14]: up to half of the cells entering apoptosis
- PEP005 concentration with maximal response, apoptosis [3]: 2 µM
- PEP005 concentration with optimal effect, apoptosis [4]: 20 nM
- synergy with ATRA in CD11b differentiation response ([5]; 10 nM ATRA and 20 nM PEP005 in combination, 5 days): able to synergize with ATRA
- PEP005 concentration with optimal effect, CD11b expression ([5]; treated 5 days): 20 nM
- PEP005 concentration with optimal effect, CD11b expression [6]: 20 nM
- CD11b expression [7]: did not increase expression of CD11b
- differentiation response ([8]; agent alone): did not respond
- CD11b expression ([8]; even at 20 μM PEP005): did not enter apoptosis or show CD11b expression
- viable blast cells / morphology ([9]; after 48 hours of treatment with 20 nM PEP005): few viable AML blast cells remained
- patient AML blast samples induced to enter apoptosis ([9]; blasts of eight AML patients): seven of these were induced to enter apoptosis
- lowest PEP005 concentration inducing apoptosis ([9]; seven responsive AML samples): 2 nM
- induction of apoptosis ([10]; concentrations of PEP005 effective against cell lines and AML blast cells, cord blood and adult marrow myeloblasts): Induction of apoptosis was not seen
- cytotoxicity ([10]; even at 200 nM PEP005): cytotoxicity did not occur
- differentiation (loss of CD34, promyelocyte- and myelocyte-like morphologies) [11]: induced to differentiate
- apoptosis (forward and side scatter by FACS) [12]: resistant to PEP005-induced apoptosis
